According to publication PMC4485422 (Neuron, 2015):

Target: sepiapterin reductase (hSPR) (Homo sapiens, UniProt P35270)
Experiment: cell-free TR-FRET binding assay

Sequence of sepiapterin reductase (hSPR) (P35270 whole entry): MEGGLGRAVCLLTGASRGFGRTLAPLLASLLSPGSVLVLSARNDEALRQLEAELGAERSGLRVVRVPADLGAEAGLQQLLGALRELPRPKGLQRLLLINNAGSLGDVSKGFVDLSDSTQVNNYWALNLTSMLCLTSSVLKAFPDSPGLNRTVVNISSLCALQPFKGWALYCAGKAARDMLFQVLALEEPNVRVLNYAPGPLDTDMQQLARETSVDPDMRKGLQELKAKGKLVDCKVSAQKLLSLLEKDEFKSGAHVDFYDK

`CC(=O)NCCc1c[nH]c2ccc(O)cc12` [NAS, N-acetylserotonin] gave an IC50 of 1900 nM.
